Source: patent US20230167088A1, “1-PYRAZINYLPYRAZOLYL-3-OXYALKYL ACIDS AND THEIR DERIVATIVES, AND THEIR USE FOR CONTROL OF UNDESIRED PLANT GROWTH” (BAYER AKTIENGESELLSCHAFT, priority 2020, published 2023)

Columns and labels:
LOLRI = experiment: Herbicidal post-emergence action 1a (greenhouse pots, visual rating); type: in vivo, Lolium rigidum; conditions: Dosage 80 g/ha; rated visually about 3 weeks after treatment; 100% = plants have died, 0% = like control plants
How it was run: (§1)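 Weeds and crops sown in sandy loam in greenhouse pots were sprayed post-emergence at the one-leaf stage (2–3 weeks after sowing) with WP or EC formulations plus 0.5% additive at 600 l/ha water, 320 and/or 80 g/ha. About 3 weeks later damage was rated visually against untreated controls (0% = no effect, 100% = dead).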

POLCO [1] = experiment: as above; type: in vivo, Polygonum convolvulus; conditions: dosage 80 g/ha, visual rating about 3 weeks after treatment
How it was run: as §1

AVEFA [2] = experiment: as above; type: in vivo, Avena fatua; conditions: Dosage 80 g/ha; rated visually about 3 weeks after treatment; 100% = plants have died, 0% = like control plants
How it was run: as §1

POLCO [3] = experiment: Herbicidal pre-emergence action 2a (greenhouse pots, visual scoring); type: in vivo, Polygonum convolvulus; conditions: dosage 320 g/ha, visual scoring after about 3 weeks vs untreated controls
How it was run: (§2)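 Dose levels were 320 g/ha and/or 80 g/ha, delivered as an aqueous spray of wettable powder or emulsion concentrate plus 0.5% additive onto soil over sown seeds. Plants grew under good greenhouse conditions for about 3 weeks before visual percentage rating versus untreated pots.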

ECHCG [4] = experiment: Herbicidal post-emergence action 1a (greenhouse pots, visual rating); type: in vivo, Echinochloa crus-galli; conditions: rated visually about 3 weeks after treatment, 100% = plants have died, 0% = like control plants
How it was run: as §1

MATIN = experiment: as above; type: in vivo, Matricaria inodora; conditions: dosage 320 g/ha, visual rating about 3 weeks after treatment
How it was run: as §1

AMARE [5] = experiment: Herbicidal pre-emergence action 2a (greenhouse pots, visual scoring); type: in vivo, Amaranthus retroflexus; conditions: dosage 320 g/ha, visual scoring after about 3 weeks vs untreated controls
How it was run: as §2

ECHCG [6] = experiment: as above; type: in vivo, Echinochloa crus-galli; conditions: dosage 320 g/ha, visual scoring after about 3 weeks
How it was run: as §2

DIGSA [7] = experiment: as above; type: in vivo, Digitaria sanguinalis; conditions: dosage 320 g/ha, visual scoring after about 3 weeks
How it was run: as §2

PHBPU = experiment: Herbicidal post-emergence action 1a (greenhouse pots, visual rating); type: in vivo, Pharbitis purpurea; conditions: dosage 80 g/ha, visual rating about 3 weeks after treatment
How it was run: as §1

STEME [8] = experiment: Herbicidal pre-emergence action 2a (greenhouse pots, visual scoring); type: in vivo, Stellaria media; conditions: dosage 320 g/ha, visual scoring after about 3 weeks vs untreated controls
Description: (§3) [table] a) Seeds of monocotyledonous and dicotyledonous weed plants and crop plants are placed in plastic or organic plant pots and covered with soil. The compounds of the invention, formulated in the form of wettable powders (WP) or as emulsion concentrates (EC), are then applied onto the surface of the covering soil as aqueous suspension or emulsion with addition of 0.5% additive at a water application rate of 600 1/ha (converted). After the treatment, the pots are placed in a greenhouse and kept under good growth conditions for the trial plants. After about 3 weeks, the effect of the preparations is scored visually in comparison with untreated controls as percentages. For example, 100% activity=the plants have died, 0% activity=like control plants. Tables B1 to B15 below show the effects of selected compounds of the general formula (I) according to Tables 1 and 2 on various harmful plants and an application rate corresponding to 320 g/ha and/or 80 g/ha, which were obtained by the experimental procedure mentioned above.

DIGSA [9] = experiment: Herbicidal post-emergence action 1a (greenhouse pots, visual rating); type: in vivo, Digitaria sanguinalis; conditions: rated visually about 3 weeks after treatment, 100% = plants have died, 0% = like control plants
Description: (§4) [table] a) Seeds of monocotyledonous and dicotyledonous weeds and crop plants are placed in sandy loam in plastic or organic plant pots, covered with soil and cultivated in a greenhouse under controlled growth conditions. 2 to 3 weeks after sowing, the test plants are treated at the one-leaf stage. The compounds of the invention, formulated in the form of wettable powders (WP) or as emulsion concentrates (EC), are then sprayed onto the green parts of the plants as aqueous suspension or emulsion with addition of 0.5% additive at a water application rate of 600 1/ha (converted). After the test plants have been kept in the greenhouse under optimum growth conditions for about 3 weeks, the activity of the preparations is rated visually in comparison to untreated controls. For example, 100% activity=the plants have died, 0% activity=like control plants. Tables A1 to A15 below show the effects of selected compounds of the general formula (I) according to Tables 1 and 2 on various harmful plants and an application rate corresponding to 320 g/ha and/or 80 g/ha, which were obtained by the experimental procedure mentioned above.

STEME [10] = experiment: as above; type: in vivo, Stellaria media; conditions: Dosage 80 g/ha; rated visually about 3 weeks after treatment; 100% = plants have died, 0% = like control plants
Description: as §4

ABUTH = experiment: as above; type: in vivo, Abutilon theophrasti; conditions: dosage 320 g/ha, visual rating about 3 weeks after treatment
How it was run: as §1

SETVI = experiment: Herbicidal pre-emergence action 2a (greenhouse pots, visual scoring); type: in vivo, Setaria viridis; conditions: dosage 320 g/ha, visual scoring after about 3 weeks vs untreated controls
How it was run: as §2

HORMU [11] = experiment: Herbicidal post-emergence action 1a (greenhouse pots, visual rating); type: in vivo, Hordeum murinum; conditions: rated visually about 3 weeks after treatment, 100% = plants have died, 0% = like control plants
Description: as §4

VIOTR [12] = experiment: as above; type: in vivo, Viola tricolor; conditions: dosage 80 g/ha, visual rating about 3 weeks after treatment
How it was run: as §1

harmful plants = experiment: Herbicidal pre-emergence action 2a, summary across species; type: in vivo; conditions: Tables B1 to B15 (320 g/ha and/or 80 g/ha)
Description: as §3, with “a)” for “[table] a)”, “plants.” for “plants. Tables B1 to B15 below show the effects of selected compounds of the general formula (I) according to Tables 1 and 2 on various harmful plants and an application rate corresponding to 320 g/ha and/or 80 g/ha, which were obtained by the experimental procedure mentioned above.”
Tables B1 to B15 below show the effects of selected compounds of the general formula (I) according to Tables 1 and 2 on various harmful plants and an application rate corresponding to 320 g/ha and/or 80 g/ha, which were obtained by the experimental procedure mentioned above.
For example, compound nos. I-07, I-08, I-11, I-12, I-13, I-16, I-17, I-20, I-36, I-37, I-39, I-45, I-46, I-48, I-52 and I-53 in the pre-emergence method have very good action (80% to 100% herbicidal activity) against harmful plants such as Alopecurus myosuroides, Amaranthus retroflexus, Digitaria sanguinalis, Lolium rigidum, Polygonum convolvulus, Setaria viridis, Veronica persica and Viola tricolor at an application rate of 0.32 kg of active substance per hectare.

VERPE [13] = experiment: Herbicidal pre-emergence action 2a (greenhouse pots, visual scoring); type: in vivo, Veronica persica; conditions: dosage 320 g/ha, visual scoring after about 3 weeks vs untreated controls
How it was run: as §2

ALOMY [14] = experiment: as above; type: in vivo, Alopecurus myosuroides; conditions: dosage 320 g/ha, visual scoring after about 3 weeks
How it was run: as §2

AVEFA [15] = experiment: as above; type: in vivo, Avena fatua; conditions: dosage 320 g/ha, visual scoring after about 3 weeks
How it was run: as §2

VIOTR [16] = experiment: as above; type: in vivo, Viola tricolor; conditions: dosage 320 g/ha, visual scoring after about 3 weeks vs untreated controls
How it was run: as §2

ALOMY [17] = experiment: Herbicidal post-emergence action 1a (greenhouse pots, visual rating); type: in vivo, Alopecurus myosuroides; conditions: Dosage 80 g/ha; rated visually about 3 weeks after treatment; 100% = plants have died, 0% = like control plants
How it was run: as §1

AMARE [18] = experiment: as above; type: in vivo, Amaranthus retroflexus; conditions: dosage 80 g/ha, visual rating about 3 weeks after treatment
How it was run: as §1

VERPE [19] = experiment: as above; type: in vivo, Veronica persica; conditions: dosage 80 g/ha, visual rating about 3 weeks after treatment
How it was run: as §1

HORMU [20] = experiment: Herbicidal pre-emergence action 2a (greenhouse pots, visual scoring); type: in vivo, Hordeum murinum; conditions: dosage 320 g/ha, visual scoring after about 3 weeks vs untreated controls
Description: as §3

C=CCOC(=O)C(C)Oc1nn(-c2cnccn2)c(-c2ccc(F)nc2)c1Br (racemic) [Example I-13]
90%: Pre-emergence action against POLCO in % (POLCO [3]) | Post-emergence action against ECHCG in % (ECHCG [4]; Dosage 320 g/ha) | Pre-emergence action against STEME in % (STEME [8]) | Post-emergence action against DIGSA in % (DIGSA [9]; Dosage 320 g/ha) | Post-emergence action against STEME in % (STEME [10]) | Post-emergence action against HORMU in % (HORMU [11]; Dosage 80 g/ha) | Post-emergence action against HORMU in % (HORMU [11]; Dosage 320 g/ha) | Post-emergence action against VIOTR in % (VIOTR [12]) | Pre-emergence action against AVEFA in % (AVEFA [15]) | Post-emergence action against ALOMY in % (ALOMY [17]) | Post-emergence action against VERPE in % (VERPE [19])
good herbicidal efficacy: herbicidal efficacy against harmful plants in the case of pre-emergence treatment (in words) (harmful plants)
80%: Post-emergence action against LOLRI in % (LOLRI) | Post-emergence action against POLCO in % (POLCO [1]) | Post-emergence action against ECHCG in % (ECHCG [4]; Dosage 80 g/ha) | Post-emergence action against MATIN in % (MATIN) | Post-emergence action against PHBPU in % (PHBPU) | Post-emergence action against DIGSA in % (DIGSA [9]; Dosage 80 g/ha) | Post-emergence action against ABUTH in % (ABUTH) | Post-emergence action against AMARE in % (AMARE [18])
100%: Post-emergence action against AVEFA in % (AVEFA [2]) | Pre-emergence action against AMARE in % (AMARE [5]) | Pre-emergence action against ECHCG in % (ECHCG [6]) | Pre-emergence action against DIGSA in % (DIGSA [7]) | Pre-emergence action against SETVI in % (SETVI) | Pre-emergence action against VERPE in % (VERPE [13]) | Pre-emergence action against ALOMY in % (ALOMY [14]) | Pre-emergence action against VIOTR in % (VIOTR [16]) | Pre-emergence action against HORMU in % (HORMU [20])
